According to patent US7786141B2 (Vertex Pharmaceuticals Incorporated, priority 2004, dated 2010):
Where two headings read alike, the source gives them in different places.

How the values were obtained:
M1 muscarinic receptor = molecular target: T1, M1 muscarinic receptor (Homo sapiens, UniProt P11229); experiment: Functional mobilization of intracellular calcium (FLIPR) in M1-CHO cells; assay type: cell-based
T1 construct: expressed in transfected cells; host or cells: CHO (M1-CHO)
T1 sequence (P11229 1-460): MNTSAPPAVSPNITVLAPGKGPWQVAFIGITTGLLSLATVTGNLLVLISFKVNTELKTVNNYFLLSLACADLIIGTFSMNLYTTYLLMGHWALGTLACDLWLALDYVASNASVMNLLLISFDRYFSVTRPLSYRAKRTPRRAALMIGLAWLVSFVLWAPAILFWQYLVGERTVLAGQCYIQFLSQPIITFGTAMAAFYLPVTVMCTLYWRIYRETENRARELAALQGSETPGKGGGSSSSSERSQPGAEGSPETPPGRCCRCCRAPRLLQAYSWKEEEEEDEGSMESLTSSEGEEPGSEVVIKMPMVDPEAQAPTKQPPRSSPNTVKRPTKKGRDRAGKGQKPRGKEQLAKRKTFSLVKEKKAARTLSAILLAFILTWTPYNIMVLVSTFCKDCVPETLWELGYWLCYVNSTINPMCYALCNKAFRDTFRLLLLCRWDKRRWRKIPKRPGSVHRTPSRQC
How it was run: (§1)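 CHO cells stably expressing human M1 or M4 receptor were loaded with Fluo-3 AM (or Calcium 3 dye) in Hepes-buffered saline, pH 7.4, with 1 mM probenecid, 0.5% final DMSO. Agonist mode: compound added directly; antagonist mode: 15 min preincubation before carbachol at EC80. FLIPR fluorescence recorded 60 sec.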

M4 muscarinic receptor = molecular target: T2, M4 muscarinic receptor (Homo sapiens, UniProt P08173); experiment: Functional mobilization of intracellular calcium (FLIPR) in M4-CHO cells; assay type: cell-based
T2 construct: expressed in transfected cells; host or cells: CHO (M4-CHO)
T2 sequence (P08173 1-479): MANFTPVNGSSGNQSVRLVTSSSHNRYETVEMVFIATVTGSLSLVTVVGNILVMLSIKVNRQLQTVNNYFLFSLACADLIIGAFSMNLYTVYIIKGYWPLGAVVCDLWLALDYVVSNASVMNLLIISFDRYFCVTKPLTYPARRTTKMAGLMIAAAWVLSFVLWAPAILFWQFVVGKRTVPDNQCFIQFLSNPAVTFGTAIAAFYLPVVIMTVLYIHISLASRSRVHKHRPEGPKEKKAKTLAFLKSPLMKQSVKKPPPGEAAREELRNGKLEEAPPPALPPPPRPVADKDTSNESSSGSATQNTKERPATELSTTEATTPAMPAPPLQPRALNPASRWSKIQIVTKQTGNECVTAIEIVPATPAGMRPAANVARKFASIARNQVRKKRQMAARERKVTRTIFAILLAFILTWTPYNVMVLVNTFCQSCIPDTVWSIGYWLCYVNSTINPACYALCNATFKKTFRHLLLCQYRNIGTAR
How it was run: as §1

[1] = Table 4, 100% efficacy is the maximum response obtained with the Carbachol control
[2] = Table 4, M1 receptor, calcium mobilization (FLIPR)
[3] = Table 4, M4 receptor, calcium mobilization (FLIPR)
[4] = M1-CHO cells, calcium mobilization (FLIPR)
[5] = M1-CHO cells, calcium mobilization (FLIPR), read-out: M1 Efficacy
[6] = M4-CHO cells, calcium mobilization (FLIPR)
[7] = M4-CHO cells, calcium mobilization (FLIPR), read-out: M4 Efficacy
[8] = Table 4, modulating M1 receptor
[9] = Table 4, modulating M4 receptor
[10] = M1 receptor, calcium mobilization
[11] = M1 receptor, calcium mobilization, read-out: M1 Efficacy
[12] = M4 receptor, calcium mobilization
[13] = M4 receptor, calcium mobilization, read-out: M4 Efficacy

| Compound | Emax (M1 muscarinic receptor; [1]) | M1 Activity (M1 muscarinic receptor; [8]) | Emax (M4 muscarinic receptor; [1]) | M4 Activity (M4 muscarinic receptor; [9]) | also measured |
| --- | --- | --- | --- | --- | --- |
| CC(=O)N[C@H]1CCC2(CCN(CCC3CCN(C(C)=O)CC3)CC2)c2ccccc21 [compound 832] | – | – | – | – | M1 Efficacy (M1 muscarinic receptor; [1]): xx (efficacy was calculated to be between 100% and 25%); M1 Activity (M1 muscarinic receptor; [2]): xxx (activity was measured to be less than 2.0 μM); M4 Efficacy (M4 muscarinic receptor; [1]): xx (efficacy was calculated to be between 100% and 25%); M4 Activity (M4 muscarinic receptor; [3]): xxx (activity was measured to be less than 2.0 μM) |
| CC(=O)N1CC2(CCN(CC3CCN(C(=O)OC(C)C)CC3)CC2)c2cc(C)ccc21 [compound 404] | – | – | – | – | EC50 (M1 muscarinic receptor; [4]): 100 to 1000 nM; Emax (M1 muscarinic receptor; [5]): < 65%; EC50 (M4 muscarinic receptor; [6]): > 1000 nM; Emax (M4 muscarinic receptor; [7]): < 65% |
| C#CCOC(=O)N1CCC(N2CCC3(CC2)CN(C(C)=O)c2cccc(C)c23)CC1 [compound 453] | 25 to 100% | xxx (activity was measured to be less than 2.0 μM) | < 25% | x (activity was measured to be greater than 5.0 μM) | – |
| CCOC(=O)N1CCC(N2CCC3(CC2)CN(c2ccncc2)c2ccc(F)cc23)CC1 [compound 517] | 25 to 100% | xxx (activity was measured to be less than 2.0 μM) | 25 to 100% | xxx (activity was measured to be less than 2.0 μM) | – |
| CCOC(=O)N1C2CCC1CC(N1CCC3(CC1)CN(C(=O)c1cc(C)oc1C)c1ccc(F)cc13)C2 (centres unmarked) [compound 73] | – | – | – | – | M1 Activity (M1 muscarinic receptor; [10]): xxx (activity was measured to be less than 0.1 μM); Emax (M1 muscarinic receptor; [11]): 65 to 85%; M4 Activity (M4 muscarinic receptor; [12]): xx (activity was measured to be between 0.1 μM and 1.0 μM); Emax (M4 muscarinic receptor; [13]): 65 to 85% |
| CCCCC(=O)N1CCC(N2CCC3(CC2)CN(C(=O)N(C)C)c2ccc(F)cc23)CC1 [compound 590] | 25 to 100% | xx (activity was measured to be between 2.0 μM and 5.0 μM) | < 25% | xx (activity was measured to be between 2.0 μM and 5.0 μM) | – |
| CC(=O)NC1CC2(CCN(CC3CC4C=CC3C4)CC2)c2ccc(C)cc21 (centres unmarked) [compound 985] | 25 to 100% | – | 25 to 100% | – | M1 Activity (M1 muscarinic receptor; [2]): x (activity was measured to be greater than 5.0 μM); M4 Activity (M4 muscarinic receptor; [3]): xx (activity was measured to be between 2.0 μM and 5.0 μM) |
| O=C(OCC(F)F)N1C2CCC1CC(N1CCC3(CC1)COc1ccc(F)cc13)C2 (centres unmarked) [compound 186] | – | – | – | – | M1 Activity (M1 muscarinic receptor; [10]): xxx (activity was measured to be less than 0.1 μM); Emax (M1 muscarinic receptor; [11]): > 85%; M4 Activity (M4 muscarinic receptor; [12]): x (activity was measured to be greater than 1.0 μM); Emax (M4 muscarinic receptor; [13]): 65 to 85% |
| CC(=O)N[C@H]1CC2(CCN([C@@H]3CC4CCC3C4)C2)c2ccc(F)cc21 (some centres unmarked) [compound 821] | 25 to 100% | – | < 25% | – | M1 Activity (M1 muscarinic receptor; [2]): x (activity was measured to be greater than 5.0 μM); M4 Activity (M4 muscarinic receptor; [3]): x (activity was measured to be greater than 5.0 μM) |
| CC(=O)N[C@H]1CCC2(CCN(CCCC3CCCCC3)CC2)c2ccccc21 [compound 452] | 25 to 100% | xxx (activity was measured to be less than 2.0 μM) | < 25% | x (activity was measured to be greater than 5.0 μM) | – |
| CN(C)C(=O)NC1CCC2(CCN(CC3CCCCC3)CC2)c2ccccc21 (centres unmarked) [compound 673] | < 25% | x (activity was measured to be greater than 5.0 μM) | 25 to 100% | xx (activity was measured to be between 2.0 μM and 5.0 μM) | – |
| CCOC(=O)N1CCC(N2CCC3(CC2)CN(C(=O)c2ccccc2C)c2ccc(F)cc23)CC1 [compound 53] | – | – | – | – | M1 Activity (M1 muscarinic receptor; [10]): xx (activity was measured to be between 0.1 μM and 1.0 μM); Emax (M1 muscarinic receptor; [11]): < 65%; M4 Activity (M4 muscarinic receptor; [12]): xx (activity was measured to be between 0.1 μM and 1.0 μM); Emax (M4 muscarinic receptor; [13]): 65 to 85% |
| CCCCOC(=O)N1CCC(N2CCC3(CC2)CN(C(C)=O)c2ccccc23)CC1 [compound 683] | 25 to 100% | xx (activity was measured to be between 2.0 μM and 5.0 μM) | < 25% | x (activity was measured to be greater than 5.0 μM) | – |
| COCCN1CC2(CCN(C3CCN(C(=O)OCCF)CC3)CC2)c2cc(F)ccc21 [compound 460] | 25 to 100% | xxx (activity was measured to be less than 2.0 μM) | 25 to 100% | xxx (activity was measured to be less than 2.0 μM) | – |
| CCOC(=O)N1CCC(N2CCC3(CC2)CN(C(=O)c2cccc(F)c2)c2ccc(F)cc23)CC1 [compound 410] | – | – | – | – | EC50 (M1 muscarinic receptor; [4]): 100 to 1000 nM; Emax (M1 muscarinic receptor; [5]): < 65%; EC50 (M4 muscarinic receptor; [6]): 100 to 1000 nM; Emax (M4 muscarinic receptor; [7]): < 65% |
| CCCC1CCC(N2CCC3(CC2)CNc2ccc(F)cc23)CC1 (centres unmarked) [compound 328] | – | – | – | – | M1 Activity (M1 muscarinic receptor; [10]): xx (activity was measured to be between 0.1 μM and 1.0 μM); Emax (M1 muscarinic receptor; [11]): < 65%; M4 Activity (M4 muscarinic receptor; [12]): x (activity was measured to be greater than 1.0 μM); Emax (M4 muscarinic receptor; [13]): 65 to 85% |
| Cc1ccc2c(c1)C1(CCN(C3C4CCCC3CCC4)CC1)CN2 (centres unmarked) [compound 72] | – | – | – | – | M1 Activity (M1 muscarinic receptor; [10]): xxx (activity was measured to be less than 0.1 μM); Emax (M1 muscarinic receptor; [11]): 65 to 85%; M4 Activity (M4 muscarinic receptor; [12]): xx (activity was measured to be between 0.1 μM and 1.0 μM); Emax (M4 muscarinic receptor; [13]): 65 to 85% |
| CCOC(=O)N1CCC(N2CCC3(CC2)CN(C(=O)[C@@H](O)CC)c2ccc(F)cc23)CC1 [compound 1004] | 25 to 100% | – | 25 to 100% | – | M1 Activity (M1 muscarinic receptor; [2]): xxx (activity was measured to be less than 2.0 μM); M4 Activity (M4 muscarinic receptor; [3]): xxx (activity was measured to be less than 2.0 μM) |
| CN(C)C(=O)N1CC2(CCN(C3CCN(C(=O)c4ccon4)CC3)CC2)c2cc(F)ccc21 [compound 619] | 25 to 100% | xx (activity was measured to be between 2.0 μM and 5.0 μM) | 25 to 100% | xxx (activity was measured to be less than 2.0 μM) | – |
| CCOC(=O)N1C2CCC1CC(N1CCC3(CC[C@H](NC(C)=O)c4ccccc43)CC1)C2 (some centres unmarked) [compound 810] | 25 to 100% | – | 25 to 100% | – | M1 Activity (M1 muscarinic receptor; [2]): xxx (activity was measured to be less than 2.0 μM); M4 Activity (M4 muscarinic receptor; [3]): xxx (activity was measured to be less than 2.0 μM) |
| CCOC(=O)N1CCC(N2CCC3(CC2)CN(C(C)=O)c2ccc(-c4cccc(OC)c4)cc23)CC1 [compound 648] | 25 to 100% | xx (activity was measured to be between 2.0 μM and 5.0 μM) | < 25% | x (activity was measured to be greater than 5.0 μM) | – |
| CC(=O)N1CC2(CCN(C3CCN(c4cnc(C)c(C)n4)CC3)CC2)c2ccccc21 [compound 953] | 25 to 100% | – | 25 to 100% | – | M1 Activity (M1 muscarinic receptor; [2]): xx (activity was measured to be between 2.0 μM and 5.0 μM); M4 Activity (M4 muscarinic receptor; [3]): xxx (activity was measured to be less than 2.0 μM) |
| Fc1ccc2c(c1)C1(CCN(CC3CC4C=CC3C4)CC1)CN2 (centres unmarked) [compound 183] | – | – | – | – | M1 Activity (M1 muscarinic receptor; [10]): xx (activity was measured to be between 0.1 μM and 1.0 μM); Emax (M1 muscarinic receptor; [11]): 65 to 85%; M4 Activity (M4 muscarinic receptor; [12]): x (activity was measured to be greater than 1.0 μM); Emax (M4 muscarinic receptor; [13]): 65 to 85% |
